Reference: PubChem BioAssay AID1845209 (Molecular Pharmacology Branch, DTP, NCI, 2023)

Tested on: NCI-H211 tumor spheroids, viability percent test/control
Assay: Anticancer human tumor NCI-H211 cell line growth inhibition;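 also: spheroids exposed to agents for seven days before readout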
Details: spheroids with HUVEC and MSC; for IC50: curve of first compound; for viability, T/C: stronger effect = lower value
How it was run: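 Complex tumor spheroids combined malignant cells with endothelial cells and mesenchymal stem cells. DNA-damaging drugs and DNA repair inhibitors were tested alone and in combination, at half-log dilutions down from clinical Cmax (top 10 microM if Cmax unknown), 0.25% DMSO final.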

[1] = second compound 1 µM, first compound 0.0316 µM
[2] = second compound 1 µM, first compound 0.1 µM
[3] = second compound 1 µM, first compound 0.316 µM
[4] = second compound 1 µM, first compound 1 µM
[5] = second compound 1 µM, first compound 3.16 µM
[6] = second compound 1 µM, first compound 10 µM
[7] = second compound 3.16 µM, first compound 0.0316 µM
[8] = second compound 3.16 µM, first compound 0.1 µM
[9] = second compound 3.16 µM, first compound 0.316 µM
[10] = second compound 3.16 µM, first compound 1 µM
[11] = second compound 3.16 µM, first compound 3.16 µM
[12] = second compound 3.16 µM, first compound 10 µM
[13] = second compound 10 µM, first compound 0.0316 µM
[14] = second compound 10 µM, first compound 0.1 µM
[15] = second compound 10 µM, first compound 0.316 µM
[16] = second compound 10 µM, first compound 1 µM
[17] = second compound 10 µM, first compound 3.16 µM
[18] = second compound 10 µM, first compound 10 µM
[19] = second compound 31.6 µM, first compound 0.0316 µM
[20] = second compound 31.6 µM, first compound 0.1 µM
[21] = second compound 31.6 µM, first compound 0.316 µM
[22] = second compound 31.6 µM, first compound 1 µM
[23] = second compound 31.6 µM, first compound 3.16 µM
[24] = second compound 31.6 µM, first compound 10 µM
[25] = second compound 100 µM, first compound 0.0316 µM
[26] = second compound 100 µM, first compound 0.1 µM
[27] = second compound 100 µM, first compound 0.316 µM
[28] = second compound 100 µM, first compound 1 µM
[29] = second compound 100 µM, first compound 3.16 µM
[30] = second compound 100 µM, first compound 10 µM

## [2H]c1nc(C)nc([2H])c1-c1cc(NC[C@@H](C)c2cccc3c(C(=O)NC)ccnc23)ncn1 + Cn1nnc2c(C(N)=O)ncn2c1=O
Second compound 1 µM
  IC50: > 10000 nM
Second compound 3.16 µM
  IC50: > 10000 nM
Second compound 10 µM
  IC50: > 10000 nM
Second compound 31.6 µM
  IC50: 3300 nM
Second compound 100 µM
  IC50: < 31.6 nM
[1]
  viability, T/C: 97.9%
[2]
  viability, T/C: 96.7%
[3]
  viability, T/C: 93.5%
[4]
  viability, T/C: 95%
[5]
  viability, T/C: 101%
[6]
  viability, T/C: 88.9%
[7]
  viability, T/C: 108%
[8]
  viability, T/C: 113%
[9]
  viability, T/C: 98.7%
[10]
  viability, T/C: 99.7%
[11]
  viability, T/C: 95.3%
[12]
  viability, T/C: 103%
[13]
  viability, T/C: 106%
[14]
  viability, T/C: 105%
[15]
  viability, T/C: 85.5%
[16]
  viability, T/C: 103%
[17]
  viability, T/C: 65%
[18]
  viability, T/C: 82.6%
[19]
  viability, T/C: 61.5%
[20]
  viability, T/C: 53.1%
[21]
  viability, T/C: 49.8%
[22]
  viability, T/C: 47.5%
[23]
  viability, T/C: 51.6%
[24]
  viability, T/C: 18.4%
[25]
  viability, T/C: 33%
[26]
  viability, T/C: 21.6%
[27]
  viability, T/C: 15.9%
[28]
  viability, T/C: 13.6%
[29]
  viability, T/C: 11.7%
[30]
  viability, T/C: 8.11%

## COc1cc(C)[nH]c(=O)c1CN1CCc2c(Cl)cc(C(OC)C3COC3)c(Cl)c2C1=O (stereo not given) + Cn1nnc2c(C(N)=O)ncn2c1=O
Second compound 1 µM
  IC50: > 10000 nM
Second compound 3.16 µM
  IC50: > 10000 nM
Second compound 10 µM
  IC50: > 10000 nM
Second compound 31.6 µM
  IC50: 1330 nM
Second compound 100 µM
  IC50: < 31.6 nM
[1]
  viability, T/C: 92.7%
[2]
  viability, T/C: 90.4%
[3]
  viability, T/C: 90.6%
[4]
  viability, T/C: 82.7%
[5]
  viability, T/C: 81.3%
[6]
  viability, T/C: 72.8%
[7]
  viability, T/C: 92.6%
[8]
  viability, T/C: 99.3%
[9]
  viability, T/C: 90%
[10]
  viability, T/C: 82.3%
[11]
  viability, T/C: 70.2%
[12]
  viability, T/C: 81.5%
[13]
  viability, T/C: 99.8%
[14]
  viability, T/C: 98.7%
[15]
  viability, T/C: 86.6%
[16]
  viability, T/C: 86.5%
[17]
  viability, T/C: 70.2%
[18]
  viability, T/C: 56.1%
[19]
  viability, T/C: 56.4%
[20]
  viability, T/C: 54.6%
[21]
  viability, T/C: 59.6%
[22]
  viability, T/C: 56.3%
[23]
  viability, T/C: 30.8%
[24]
  viability, T/C: 30.8%
[25]
  viability, T/C: 31.5%
[26]
  viability, T/C: 33.4%
[27]
  viability, T/C: 19.6%
[28]
  viability, T/C: 13.8%
[29]
  viability, T/C: 12.6%
[30]
  viability, T/C: 12%

## CC(C)n1c(=O)n(C)c2cnc3cc(F)c(-c4ccc(OCCCN5CCCCC5)nc4)cc3c21 + COc1cc2c(cc1O)CCNC21CSC2c3c(OC(C)=O)c(C)c4c(c3C(COC1=O)N1C(O)C3Cc5cc(C)c(OC)c(O)c5C(C21)N3C)OCO4
Second compound 30 pM
  IC50: < 31.6 nM
Second compound 94.9 pM
  IC50: < 31.6 nM
Second compound 0.0003 µM
  IC50: < 31.6 nM
Second compound 0.000949 µM
  IC50: < 31.6 nM
Second compound 0.003 µM
  IC50: < 31.6 nM
Second compound 30 pM, first compound 0.0316 µM
  viability, T/C: 27%
Second compound 30 pM, first compound 0.1 µM
  viability, T/C: 15.3%
Second compound 30 pM, first compound 0.316 µM
  viability, T/C: 15.5%
Second compound 30 pM, first compound 1 µM
  viability, T/C: 12.7%
Second compound 30 pM, first compound 3.16 µM
  viability, T/C: 9.25%
Second compound 30 pM, first compound 10 µM
  viability, T/C: 0.77%
Second compound 94.9 pM, first compound 0.0316 µM
  viability, T/C: 0.99%
Second compound 94.9 pM, first compound 0.1 µM
  viability, T/C: 0.88%
Second compound 94.9 pM, first compound 0.316 µM
  viability, T/C: 1.06%
Second compound 94.9 pM, first compound 1 µM
  viability, T/C: 0.96%
Second compound 94.9 pM, first compound 3.16 µM
  viability, T/C: 0.8%
Second compound 94.9 pM, first compound 10 µM
  viability, T/C: 0.42%
Second compound 0.0003 µM, first compound 0.0316 µM
  viability, T/C: 0.68%
Second compound 0.0003 µM, first compound 0.1 µM
  viability, T/C: 0.74%
Second compound 0.0003 µM, first compound 0.316 µM
  viability, T/C: 0.77%
Second compound 0.0003 µM, first compound 1 µM
  viability, T/C: 1.03%
Second compound 0.0003 µM, first compound 3.16 µM
  viability, T/C: 0.82%
Second compound 0.0003 µM, first compound 10 µM
  viability, T/C: 0.31%
Second compound 0.000949 µM, first compound 0.0316 µM
  viability, T/C: 0.69%
Second compound 0.000949 µM, first compound 0.1 µM
  viability, T/C: 0.69%
Second compound 0.000949 µM, first compound 0.316 µM
  viability, T/C: 0.71%
Second compound 0.000949 µM, first compound 1 µM
  viability, T/C: 0.72%
Second compound 0.000949 µM, first compound 3.16 µM
  viability, T/C: 0.7%
Second compound 0.000949 µM, first compound 10 µM
  viability, T/C: 0.5%
Second compound 0.003 µM, first compound 0.0316 µM
  viability, T/C: 0.12%
Second compound 0.003 µM, first compound 0.1 µM
  viability, T/C: 0.17%
Second compound 0.003 µM, first compound 0.316 µM
  viability, T/C: 0.11%
Second compound 0.003 µM, first compound 1 µM
  viability, T/C: 0.1%
Second compound 0.003 µM, first compound 3.16 µM
  viability, T/C: 0.12%
Second compound 0.003 µM, first compound 10 µM
  viability, T/C: 0.16%
